Test results as given in patent publication US9387209B2, “Histone deacetylases (HDACs) inhibitors” (ANNJI PHARMACEUTICAL CO., LTD., priority 2012, dated 2016).

How the values were obtained:
[1] = target: human histone deacetylases (HDAC) 1 (Homo sapiens, UniProt Q13547); assay: HDAC enzymatic assay, HDAC1; format: biochemical; conditions: read-out: IC50 HDAC1 (grading)
SH-SY5Y cells [2] = assay: Neurite synaptic uptake activity (FM1-43), SH-SY5Y; format: cell-based; conditions: Homo sapiens, NGF positive control taken as 100%, read-out: uptake of dye FM1-43 EC50
Description: (§1) Neurite Synaptic Uptake Activity Analysis.
(§2) The effects of compounds on the neuronal synapse uptake of fluorescent indicator FM1-43 were assayed. The uptake of the dye indicated the synaptic function of the neurites. PC 12 and SH-SY5Y cells were used. Cells in experimental groups were treated with a test compound and FM1-43; Cells in positive control were treated with NGF and FM1-43; Cells in negative control were treated with a vehicle and FM1-43. The fluorescence in the positive control were taken as 100%.

PC 12 cells [3] = assay: Neurite synaptic uptake activity (FM1-43), PC 12; format: cell-based; conditions: Rattus norvegicus, NGF positive control taken as 100%, read-out: uptake of dye FM1-43 EC50
Description: as §1, §2

PC 12 cells [4] = assay: Neurite outgrowth assay, PC 12; format: cell-based; conditions: Rattus norvegicus
[5] = target: T1, human histone deacetylases (HDAC) 6 (Homo sapiens, UniProt Q9UBN7); assay: HDAC enzymatic assay, HDAC6; format: biochemical; conditions: for IC50: HDAC6, read-out: IC50 HDAC6 (grading); for selective inhibitions on HDAC6: HDAC6 versus other HDACs
T1 sequence (Q9UBN7 1-1215): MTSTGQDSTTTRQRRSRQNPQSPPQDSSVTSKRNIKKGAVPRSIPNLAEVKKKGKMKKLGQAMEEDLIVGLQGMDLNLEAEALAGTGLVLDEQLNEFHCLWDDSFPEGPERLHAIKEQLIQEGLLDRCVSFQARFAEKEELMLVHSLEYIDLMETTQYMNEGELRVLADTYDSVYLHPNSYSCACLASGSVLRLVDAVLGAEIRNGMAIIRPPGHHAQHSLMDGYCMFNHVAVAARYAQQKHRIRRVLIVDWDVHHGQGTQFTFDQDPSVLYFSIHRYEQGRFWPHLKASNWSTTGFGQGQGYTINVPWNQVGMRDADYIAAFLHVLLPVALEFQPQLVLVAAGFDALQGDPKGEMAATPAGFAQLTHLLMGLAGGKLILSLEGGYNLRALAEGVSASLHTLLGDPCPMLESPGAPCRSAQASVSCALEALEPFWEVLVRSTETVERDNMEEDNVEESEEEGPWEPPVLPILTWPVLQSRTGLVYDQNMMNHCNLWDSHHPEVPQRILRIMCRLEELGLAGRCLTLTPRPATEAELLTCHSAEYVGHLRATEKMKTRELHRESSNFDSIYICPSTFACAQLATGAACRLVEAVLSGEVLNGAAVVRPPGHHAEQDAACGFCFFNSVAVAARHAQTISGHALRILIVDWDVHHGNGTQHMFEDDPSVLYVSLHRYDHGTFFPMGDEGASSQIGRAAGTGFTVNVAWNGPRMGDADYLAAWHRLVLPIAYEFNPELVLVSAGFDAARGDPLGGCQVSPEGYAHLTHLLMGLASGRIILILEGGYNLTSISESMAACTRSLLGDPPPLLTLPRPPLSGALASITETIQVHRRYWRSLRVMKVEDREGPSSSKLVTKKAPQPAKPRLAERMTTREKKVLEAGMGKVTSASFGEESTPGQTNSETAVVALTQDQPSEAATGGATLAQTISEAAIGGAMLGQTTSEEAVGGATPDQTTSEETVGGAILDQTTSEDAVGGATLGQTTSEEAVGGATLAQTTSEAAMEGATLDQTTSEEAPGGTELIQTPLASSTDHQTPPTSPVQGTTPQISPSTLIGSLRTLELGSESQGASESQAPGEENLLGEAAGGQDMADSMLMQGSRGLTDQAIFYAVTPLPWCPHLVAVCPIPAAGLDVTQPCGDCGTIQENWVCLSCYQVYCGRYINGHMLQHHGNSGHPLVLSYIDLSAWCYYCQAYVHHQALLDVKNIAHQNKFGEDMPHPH

[6] = target: T2, zinc-mediated β-amyloid aggregation (Homo sapiens, UniProt P05067); assay: Anti-amyloid aggregation assay, BCA; format: biochemical; conditions: detected by BCA
Description: (§3) Anti-Amyloid Aggregation Assay.
(§4) The effects of compounds on inhibition of β-amyloid aggregation were assayed. The levels of β-amyloid aggregates were determined by thioflavin S, BCA or CR assays (Tables 1). Thioflavin S, and Congo red are for in vitro staining of aggregated β-amyloid. Bicinchoninic acid (BCA) assay determines the total protein level or concentration.

[7] = target: T3, human histone deacetylases (HDAC) 8 (Homo sapiens, UniProt Q9BY41); assay: HDAC enzymatic assay, HDAC8; format: biochemical; conditions: HDAC8; read-out: IC50 HDAC8 (grading)
T3 sequence (Q9BY41 1-377): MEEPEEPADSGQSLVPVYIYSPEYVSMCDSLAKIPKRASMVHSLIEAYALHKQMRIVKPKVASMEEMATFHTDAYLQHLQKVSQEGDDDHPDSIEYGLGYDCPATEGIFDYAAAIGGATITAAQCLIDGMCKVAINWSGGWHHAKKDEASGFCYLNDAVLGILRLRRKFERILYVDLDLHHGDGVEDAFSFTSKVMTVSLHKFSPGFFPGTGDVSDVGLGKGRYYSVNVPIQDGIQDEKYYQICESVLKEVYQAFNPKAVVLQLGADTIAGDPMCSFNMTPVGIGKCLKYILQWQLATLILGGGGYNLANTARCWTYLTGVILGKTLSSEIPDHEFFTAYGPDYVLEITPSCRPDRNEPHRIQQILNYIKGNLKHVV

[8] = target: T2, zinc-mediated β-amyloid aggregation; assay: Anti-amyloid aggregation assay, CR (Congo red); format: biochemical; conditions: detected by CR
Description: as §3, §4

SH-SY5Y cells [9] = assay: Neurite outgrowth assay, SH-SY5Y; format: cell-based; conditions: Homo sapiens
[10] = target: T2, zinc-mediated β-amyloid aggregation; assay: Anti-amyloid aggregation assay, thioflavin S; format: biochemical; conditions: detected by thioflavin S
Description: as §3, §4

[11] = MTT or SRB assay for cytotoxicity, HCT116; format: cell-based; conditions: human, HCT-116 cells, read-out: cytotoxicity IC50 (grading) HCT116
Description: (§5) MTT or SRB Assays for Cytotoxicities of HDAC Inhibitors.
(§6) These compounds were assayed for cytotoxicities to the following cells: A549 cells (adenocarcinomic human alveolar basal epithelial cells), HCT-116 cells (human colon carcinoma cells). PANC-1 cells (human pancreatic carcinoma, epithelial-like cell line) and HepG2 cells (human liver hepatocellular carcinoma cell line), neuronal cells PC12 (rat pheochromocytoma cell line) and SH-SY5Y (human neuroblastoma cell line). MTT (3-[4,5-dimethylthiazol-2-yl]2,5-diphenyl-tetrazolium bromide) reduction was collaborated by using trypan blue exclusion assay.

[12] = MTT or SRB assay for cytotoxicity, HepG2; format: cell-based; conditions: human, HepG2 cells, read-out: cytotoxicity IC50 (grading) HepG2
Description: as §5, §6

[13] = MTT or SRB assay for cytotoxicity, PANC1; format: cell-based; conditions: human, PANC-1 cells, read-out: cytotoxicity IC50 (grading) PANC1
Description: as §5, §6

[14] = MTT or SRB assay for cytotoxicity, A549; format: cell-based; conditions: human, A549 cells, read-out: cytotoxicity IC50 (grading) A549
Description: as §5, §6

T2 sequence (P05067 672-711 limits assumed): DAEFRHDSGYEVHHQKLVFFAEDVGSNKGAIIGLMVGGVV
Sequence of human histone deacetylases (HDAC) 1 (Q13547 whole entry): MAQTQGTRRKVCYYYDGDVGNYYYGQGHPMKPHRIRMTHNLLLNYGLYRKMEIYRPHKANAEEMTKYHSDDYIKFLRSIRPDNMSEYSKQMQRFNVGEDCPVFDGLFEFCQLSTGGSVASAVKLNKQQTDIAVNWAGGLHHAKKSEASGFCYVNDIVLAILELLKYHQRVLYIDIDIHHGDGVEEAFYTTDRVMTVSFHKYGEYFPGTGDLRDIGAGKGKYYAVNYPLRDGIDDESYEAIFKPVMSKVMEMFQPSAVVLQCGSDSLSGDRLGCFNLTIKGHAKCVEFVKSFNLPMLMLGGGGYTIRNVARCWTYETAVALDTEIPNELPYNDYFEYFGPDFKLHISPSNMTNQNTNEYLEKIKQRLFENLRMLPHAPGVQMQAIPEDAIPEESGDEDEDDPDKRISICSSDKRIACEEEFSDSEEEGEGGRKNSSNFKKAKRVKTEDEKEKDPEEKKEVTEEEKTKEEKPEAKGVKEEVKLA

Row | Compound | IC50 [1] | EC50 (SH-SY5Y cells [2]) | EC50 (PC 12 cells [3]) | EC50 (PC 12 cells [4]) | IC50 [5] | selective inhibitions on HDAC6 [5] | IC50 [6] | IC50 [7] | IC50 [8] | EC50 (SH-SY5Y cells [9]) | IC50 [10] | IC50 [11] | IC50 [12] | IC50 [13] | melting point | IC50 [14]
1 | Cc1nc2cc(/C=C/C(=O)NO)ccc2c(=O)n1Cc1ccccc1 [Compound 1e, (2E)-3-(3-benzyl-3,4-dihydro-2-methyl-4-oxoquinazolin-7-yl)-N-hydroxyacrylamide] | 1 to 10 µM | 8.2 ± 0.92 µM | 8.21 ± 0.37 µM | 8.21 ± 0.37 µM | < 0.1 µM | selective inhibitions on HDAC6 | 10.6 µM | 1 to 10 µM | 5.8 µM | 8.2 ± 0.92 µM | 18.1 µM | – | – | – | – | –
2 | Cc1nc2cc(/C=C/C(=O)Nc3ccccc3N)ccc2c(=O)n1CCc1ccccc1 [Compound 6a, (2E)-N-(2-aminophenyl)-3-(3,4-dihydro-2-methyl-4-oxo-3-phenethylquinazolin-7-yl)acrylamide] | 1 to 10 µM | 8.81 ± 1.04 µM | 6.59 ± 1.06 µM | 6.59 ± 1.06 µM | > 10 µM | – | 13.8 µM | > 10 µM | 30.9 µM | 8.81 ± 1.04 µM | 10.7 µM | ≥ 10 µM | 0.1 to 1 µM | 1 to 10 µM | 246 to 248 °C (dec.) | ≥ 10 µM
3 | CCc1nc2cc(/C=C/C(=O)NO)ccc2c(=O)n1CCc1ccc(F)cc1 [Compound 1n, (2E)-3-(3-(4-fluorophenethyl)-2-ethyl-3,4-dihydro-4-oxoquinazolin-7-yl)-N-hydroxyacrylamide] | 1 to 10 µM | 22.2 ± 2.01 µM | 13.9 ± 0.94 µM | 13.9 ± 0.94 µM | < 0.1 µM | – | – | 0.1 to 1 µM | – | 22.2 ± 2.01 µM | – | 1 to 10 µM | 1 to 10 µM | 1 to 10 µM | 195 to 197 °C (dec.) | 1 to 10 µM
4 | CCc1nc2cc(/C=C/C(=O)NO)ccc2c(=O)n1CCc1ccc(OC)cc1 [Compound 1m] | 1 to 10 µM | 20.6 ± 2.51 µM | 20.6 ± 3.12 µM | 20.6 ± 3.12 µM | < 0.1 µM | – | – | 0.1 to 1 µM | – | 20.6 ± 2.51 µM | – | 1 to 10 µM | 1 to 10 µM | 1 to 10 µM | 215 to 217 °C | 1 to 10 µM
5 | O=C(/C=C/c1ccc2c(=O)n(CCc3ccccc3)cnc2c1)NO [Compound 1h, (2E)-3-(3,4-dihydro-4-oxo-3-phenethylquinazolin-7-yl)-N-hydroxyacrylamide] | 0.1 to 1 µM | 4.93 ± 1.34 µM | 14.5 ± 1.47 µM | 14.5 ± 1.47 µM | < 0.1 µM | selective inhibitions on HDAC6 | 35 µM | 0.1 to 1 µM | 14.6 µM | 4.93 ± 1.34 µM | 5.5 µM | – | – | – | 197 to 199 °C (dec.) | –
6 | Cc1nc2c(/C=C/C(=O)NO)cccc2c(=O)n1-c1ccccc1 [Compound 1d, (2E)-3-(3,4-dihydro-2-methyl-4-oxo-3-phenylquinazolin-8-yl)-N-hydroxyacrylamide] | > 10 µM | 8.03 ± 0.53 µM | 7.81 ± 0.65 µM | – | 0.1 to 1 µM | – | 11.7 µM | 0.1 to 1 µM | 14.5 µM | – | – | – | – | – | – | –
7 | Cc1nc2cccc(/C=C/C(=O)NO)c2c(=O)n1-c1ccccc1 [Compound 1a, (2E)-3-(3,4-dihydro-2-methyl-4-oxo-3-phenylquinazolin-5-yl)-N-hydroxyacrylamide] | > 10 µM | 14.7 ± 1.58 µM | 8.15 ± 0.39 µM | – | < 0.1 µM | – | 10.1 µM | 1 to 10 µM | 30.2 µM | – | – | – | – | – | – | –
8 | Cc1nc2ccc(/C=C/C(=O)NO)cc2c(=O)n1-c1ccccc1 [Compound 1b, (2E)-3-(3,4-dihydro-2-methyl-4-oxo-3-phenylquinazolin-6-yl)-N-hydroxyacrylamide] | 1 to 10 µM | – | – | – | < 0.1 µM | selective inhibitions on HDAC6 | 10.1 µM | 0.1 to 1 µM | 4.8 µM | – | – | – | – | – | – | –
9 | Cc1nc2cc(/C=C/C(=O)NO)ccc2c(=O)n1CCc1c[nH]c2ccccc12 [Compound 1g, (2E)-3-(3-(2-(1H-indol-3-yl)ethyl)-3,4-dihydro-2-methyl-4-oxoquinazolin-7-yl)-N-hydroxyacrylamide] | 0.1 to 1 µM | – | – | – | < 0.1 µM | selective inhibitions on HDAC6 | 11.1 µM | 1 to 10 µM | 15.5 µM | – | 7.4 µM | – | – | – | – | –
